# Reference: a melting point compilation (Tetko et al.; mined from patent text by program, amines drawn as free bases though some values may be those of a salt)
row,melting point [°C],SMILES
1,302,Cc1cc(O)n2nc(S(=O)(=O)Nc3c(Cl)cccc3Cl)nc2n1
2,113 to 115,O=C(CN1C(=O)CC1S(=O)c1ccccc1)NCCCCCCc1ccc(Cl)cc1 (stereo not drawn)
3,187 to 188,COc1cccc2nc3c(c(N)c12)CCCC3
4,166 to 167,O=[N+]([O-])c1ccc(Cl)c2cc[nH]c12
5,140,CCOC(=O)C(=CNc1ccc2c(c1)N1CCN=C1S2)C(=O)OCC
6,207 to 208,CC(=O)Nc1cnc(-c2ccccc2)c(-c2ccc(=O)n(C(C)C)n2)c1
7,158 to 159,FC(F)(F)c1ccc2nccc(N3CCN(C(=S)NCc4ccccc4)CC3)c2c1
8,207 to 208,Cc1cc(C(N)=S)c2c(c1C)C(=O)CC2
9,308 to 310,COc1cccc2c1[nH]c(=O)n1c(=O)[nH]nc21
10,280,Cc1c(C(=O)Nc2ccc(N3CCC(N4CCOCC4)CC3)c(C#N)c2)cnn1-c1ccc(I)cc1
11,262,O=C(NC(Cc1ccc(OCc2ccoc2)cc1)C(=O)O)c1cn2cc(-c3ccc(Cl)cc3)ccc2n1 (stereo not drawn)
12,96,O=C(Cc1ccc(I)cc1)NC[C@H]1CCCN1CCF
13,268 to 271,OCc1cc(F)c(CO)cc1F
14,102 to 104,CC(=O)C(=Cc1ccc(C=O)c([N+](=O)[O-])c1)C(C)=O
15,155 to 160,CC1(C)CCC(C)(C)c2cc(-c3cc(-c4ccc(C(=O)O)cc4)ccc3OCCCCCCCCO)ccc21
16,179 to 181,O=C(NCc1cccnc1)c1ccc(OCc2ccc3ccccc3n2)cc1C1(c2ccccc2)CC2CCC1C2 (stereo not drawn)
17,152 to 154,Cc1cc(Oc2c(Cl)cc(C(F)(F)F)cc2Cl)nn1C(N)=O
18,172 to 174,Cc1cc(OC(=O)c2ccccc2)c2ccccc2c1O
19,280 to 282,Cc1ccc(Sc2ccnc3sc(C(N)=O)cc23)cc1
20,> 300,O=C(O)c1ccc2c(c1)C(=O)CC(c1ccccc1)=N2
21,84 to 86,CC(=O)OCOC(=O)Oc1c(Br)cc(C#N)cc1Br
22,135 to 137,O=C1C2=C(CCCC2)C(=O)N1c1cc(CO)c(Cl)cc1F
23,188 to 189,CN(C)Cc1cc2c(s1)Oc1ccccc1N=C2N1CCN(C)CC1
24,179,O=C(c1ccc(O)cc1)c1c(-c2ccccc2)cc2ccccn12

row,melting point [°C],SMILES
1,175 to 177,NS(=O)(=O)c1ncnc2c1ccn2C1CC(O)C(CO)O1 (stereo not drawn)
2,234 to 235,CCCC1=C(C#N)C(c2cccc([N+](=O)[O-])c2Cl)c2c[nH]nc2N1 (stereo not drawn)
3,159 to 161,Cc1nn(-c2ccccc2)c(-c2ccccc2)c1CC(=O)O
4,132 to 133,CC(=O)C=CC=Cc1ccc(OCc2ccccc2)cc1
5,55 to 57,CCCc1c(OCCOCCOc2c(C(C)=O)ccc(OCCCCCC(=O)O)c2CCC)ccc(C(C)=O)c1O
6,60 to 62,CCCCCCCCCCCCCCCCC(C)c1cccc2c1OC(=O)C2c1ccccc1 (stereo not drawn)
7,120 to 121,CCc1nccn1N=Cc1ccc(N(C)C)cc1
8,222 to 223,C=CCSc1nc(N)n(-c2nnc(-c3ccccc3O)s2)n1
9,251,CCn1c(C)nc2cc(C(N)=O)ccc21
10,140 to 142,O=C1C=C/C(=C/c2ccc(F)cc2)O1
11,177 to 179,COc1ccc(OC)c2c1C(=O)c1ccc(C)cc1C2OC (stereo not drawn)
12,138 to 140,COc1cc(CC2(Cc3ccnc(OC)c3)c3ccccc3-c3ncccc32)ccn1
13,206 to 207,O=C1CCCN1c1cccc(Cc2n[nH]c(=O)c3ccccc23)c1
14,55,CCOC(=O)Nc1ccccc1SCc1ncon1
15,24,CC(=O)CCC(CC=O)C(C)(C)OC(C)=O (stereo not drawn)
16,164 to 166,Cn1cc(C(=O)CN2CCN(c3ncccn3)CC2)cc1C(=O)c1ccc([N+](=O)[O-])cc1
17,110 to 111,COc1cc(C=Cc2ccccc2)ccc1OCC(O)CCCc1cccnc1 (stereo not drawn)
18,198 to 200,Cc1ccnc2c1N=C(n1ccnc1)c1cccnc1N2C1CC1
19,249 to 251,CCc1nn(C2CCCC2)c2cc(C(=O)Nc3ccc(C(=O)O)cc3)ccc12
20,147,COc1ccc2[nH]cc(C#N)c2c1
21,127,CC#CCOc1ccc(C(=O)NC[C@@H](C(=O)NO)N2CCN(S(C)(=O)=O)CC2)cc1
22,132 to 134,Nc1c(CCO)cccc1C(O)c1ccc(Cl)cc1 (stereo not drawn)
23,181 to 183,COc1nc(C)nc(NC(=O)NS(=O)(=O)c2c(Cl)cccc2C(C)F)n1 (stereo not drawn)
24,163 to 165,COc1ccc(C(=O)N2CCN(c3c(C)c(C)c4c(c3C)C(c3ccc(C)cc3)C(C)(C)O4)CC2)cc1 (stereo not drawn)

row,melting point [°C],SMILES
1,73 to 77,CC(C)C[C@H](NC(=O)OCc1ccccc1)C(=O)N[C@@H](CCc1ccccc1)C(=O)CSCc1ccco1
2,120 to 122,CCc1[nH]n(C2CCCC2)c2nc(Cc3ccccn3)nc(=O)c1-2
3,231,O=C(NC(=O)c1c(F)cccc1F)Nc1cc(F)c(C(F)(F)F)c(F)c1
4,82 to 88,COC(=O)c1cc(C23CC4CC(CC(C4)C2)C3)c(OC)cc1F
5,331 to 332,Cc1ccc(F)c(-n2cnc(-c3cnc4[nH]cc(C(=O)N[C@@H](C)C(C)(C)C)c4n3)c2)c1
6,170 to 172,COc1cccc(P2(=O)c3ccccc3CN2c2ccccc2)c1 (stereo not drawn)
7,234 to 236,c1cc(-c2ccc(N3CCCN(c4ccc(-c5ccsc5)cn4)CC3)nc2)cs1
8,51 to 52,CN(CCCO)C(=O)c1cc2ccccc2c(-c2ccccc2I)n1
9,79 to 81,CSc1ncnn1C[C@]1(c2ccc(F)c(F)c2)O[C@@H]1c1ccccc1Cl (relative stereo)
10,232 to 235,CC(=O)Nc1c(F)ccc2nc(C)ccc12
11,64 to 66,CCCCCCCCCCCCOC(=O)c1cc(N=NN(CCO)c2ccc(C)cc2)ccc1[N+](=O)[O-]
12,157 to 158,COc1ccc(-c2cc(F)c(F)cc2-c2ccc(S(N)(=O)=O)cc2)cc1OC
13,205 to 208,Cc1cccc(C)c1NC(=O)N(Cc1ccccc1)CC(c1ccccc1)c1ccccc1
14,157 to 158,Cc1ccc(C(=O)Nc2cccc(C(F)(F)F)c2)cc1Br
15,137 to 139,FC(F)(F)c1cccc(C2=NN3CCN=C3C=C2)c1
16,193 to 195,CC(C)(C)c1cc(C(=O)NCCc2ccc(N)cc2)cc(C(C)(C)C)c1O
17,140 to 141,CCCC1(C2CCCC2)Cc2cc(OCCCC(=O)O)c(Cl)c(Cl)c2C1=O (stereo not drawn)
18,134 to 135,CCCCCC(CCCCC)=NN=C1NC(=O)C(CC(=O)O)S1 (stereo not drawn)
19,178 to 179,CCOC(=O)c1c(Cn2cnnc2)nc2cc(OC)c(OC)cc2c1-c1ccc(OC(C)C)c(OC)c1
20,152 to 155,CCOC(C)O[C@H]1C(=O)N(C(=O)Nc2ccccc2)[C@H]1c1ccccc1 (stereo partly drawn)
21,153 to 154,Cc1ccc(C=CC(=O)c2ccc3c(c2)C(C)(C)CCC3(C)C)cc1
22,81.8 to 82.1,COc1ccc(C(=O)NCCc2ccccc2C)cc1
23,226 to 227,Nc1nc(SC(c2ccccc2)c2ccccc2)c2[nH]cnc2n1
24,62 to 65,CCOC(=O)c1c(C)nc2snnc2c1NC(C)C

row,SMILES,melting point [°C]
1,NCCCP(=O)(O)C1CCCCC1,202 to 203
